Assay results as given in patent US8592629B2, “Sulfonamide derivatives as Nav 1.7 inhibitors” (Pfizer Limited, priority 2010, dated 2013).

target: T1, Nav1.7 (or SCN9A) channel (Homo sapiens, UniProt Q15858); assay: Nav1.7 (hSCN9A) block in HEK cells, Ionworks Quattro automated electrophysiology; type: cell-based; conditions: Ionworks Quattro assay (IW); HEK cells stably transfected with hSCN9A; read-out: Nav1.7 EIC50 (IW)
T1 construct: expressed in transfected cells
Procedure: The ability of the compounds of formula (I) to block the Nav1.7 (or SCN9A) channel were measured using the assay described below.
Human Embryonic Kidney (HEK) cells were transfected with an hSCN9A construct using lipofectamine reagent (Invitrogen), using standard techniques. Cells stably expressing the hSCN9A constructs were identified by their resistance to G-418 (400 μg/ml). Clones were screened for expression using the whole-cell voltage-clamp technique.
HEK cells stably transfected with hSCN9A were maintained in DMEM medium supplemented with 10% heat-inactivated fetal bovine serum and 400 μg/ml G-418 in an incubator at 37° C. with a humidified atmosphere of 10% CO2. For HTS, cells were harvested from flasks by trypsinization and replated in an appropriate multi-well plate (typically 96 or 384 wells/plate) such that confluence would be achieved within 24 hours of plating. For electrophysiological studies, cells were removed from the culture flask by brief trypsinization and re-plated at low density onto glass cover slips. Cells were typically used for electrophysiological experiments within 24 to 72 hours after plating.
Electrophysiological assays were also conducted using the lonworks Quattro automated electrophysiological platform (Molecular Devices Corp). Intracellular and extracellular solutions were as described above with the following changes, 120 μg/ml amphotericin was added to the intracellular solution to perforate the membrane and allow electrical access to the cells. hSCN9A cells were grown and harvested as for PatchXpress and cells were resuspended in extracellular solution at a concentration of 1×10^6 cells/ml. The onboard liquid handling facility of the Ionworks Quattro was used for dispensing cells and application of test compounds. A voltage protocol was then applied that comprised of a voltage step to fully inactivate the sodium channels, followed by a brief hyperpolarized recovery period to allow partial recovery from inactivation for unblocked sodium channels, followed by a test depolarized voltage step to assess magnitude of inhibition by test compound. Compound effect was determined based on current amplitude difference between the pre-compound addition and post-compound addition scans.
Compounds of the Examples were tested in the assays described above and found to have the Nav1.7 EIC50 (μM) values specified in the table below. All data are derived from the PatchXpress assay unless explicitly stated otherwise.

T1 sequence (Q15858 whole entry): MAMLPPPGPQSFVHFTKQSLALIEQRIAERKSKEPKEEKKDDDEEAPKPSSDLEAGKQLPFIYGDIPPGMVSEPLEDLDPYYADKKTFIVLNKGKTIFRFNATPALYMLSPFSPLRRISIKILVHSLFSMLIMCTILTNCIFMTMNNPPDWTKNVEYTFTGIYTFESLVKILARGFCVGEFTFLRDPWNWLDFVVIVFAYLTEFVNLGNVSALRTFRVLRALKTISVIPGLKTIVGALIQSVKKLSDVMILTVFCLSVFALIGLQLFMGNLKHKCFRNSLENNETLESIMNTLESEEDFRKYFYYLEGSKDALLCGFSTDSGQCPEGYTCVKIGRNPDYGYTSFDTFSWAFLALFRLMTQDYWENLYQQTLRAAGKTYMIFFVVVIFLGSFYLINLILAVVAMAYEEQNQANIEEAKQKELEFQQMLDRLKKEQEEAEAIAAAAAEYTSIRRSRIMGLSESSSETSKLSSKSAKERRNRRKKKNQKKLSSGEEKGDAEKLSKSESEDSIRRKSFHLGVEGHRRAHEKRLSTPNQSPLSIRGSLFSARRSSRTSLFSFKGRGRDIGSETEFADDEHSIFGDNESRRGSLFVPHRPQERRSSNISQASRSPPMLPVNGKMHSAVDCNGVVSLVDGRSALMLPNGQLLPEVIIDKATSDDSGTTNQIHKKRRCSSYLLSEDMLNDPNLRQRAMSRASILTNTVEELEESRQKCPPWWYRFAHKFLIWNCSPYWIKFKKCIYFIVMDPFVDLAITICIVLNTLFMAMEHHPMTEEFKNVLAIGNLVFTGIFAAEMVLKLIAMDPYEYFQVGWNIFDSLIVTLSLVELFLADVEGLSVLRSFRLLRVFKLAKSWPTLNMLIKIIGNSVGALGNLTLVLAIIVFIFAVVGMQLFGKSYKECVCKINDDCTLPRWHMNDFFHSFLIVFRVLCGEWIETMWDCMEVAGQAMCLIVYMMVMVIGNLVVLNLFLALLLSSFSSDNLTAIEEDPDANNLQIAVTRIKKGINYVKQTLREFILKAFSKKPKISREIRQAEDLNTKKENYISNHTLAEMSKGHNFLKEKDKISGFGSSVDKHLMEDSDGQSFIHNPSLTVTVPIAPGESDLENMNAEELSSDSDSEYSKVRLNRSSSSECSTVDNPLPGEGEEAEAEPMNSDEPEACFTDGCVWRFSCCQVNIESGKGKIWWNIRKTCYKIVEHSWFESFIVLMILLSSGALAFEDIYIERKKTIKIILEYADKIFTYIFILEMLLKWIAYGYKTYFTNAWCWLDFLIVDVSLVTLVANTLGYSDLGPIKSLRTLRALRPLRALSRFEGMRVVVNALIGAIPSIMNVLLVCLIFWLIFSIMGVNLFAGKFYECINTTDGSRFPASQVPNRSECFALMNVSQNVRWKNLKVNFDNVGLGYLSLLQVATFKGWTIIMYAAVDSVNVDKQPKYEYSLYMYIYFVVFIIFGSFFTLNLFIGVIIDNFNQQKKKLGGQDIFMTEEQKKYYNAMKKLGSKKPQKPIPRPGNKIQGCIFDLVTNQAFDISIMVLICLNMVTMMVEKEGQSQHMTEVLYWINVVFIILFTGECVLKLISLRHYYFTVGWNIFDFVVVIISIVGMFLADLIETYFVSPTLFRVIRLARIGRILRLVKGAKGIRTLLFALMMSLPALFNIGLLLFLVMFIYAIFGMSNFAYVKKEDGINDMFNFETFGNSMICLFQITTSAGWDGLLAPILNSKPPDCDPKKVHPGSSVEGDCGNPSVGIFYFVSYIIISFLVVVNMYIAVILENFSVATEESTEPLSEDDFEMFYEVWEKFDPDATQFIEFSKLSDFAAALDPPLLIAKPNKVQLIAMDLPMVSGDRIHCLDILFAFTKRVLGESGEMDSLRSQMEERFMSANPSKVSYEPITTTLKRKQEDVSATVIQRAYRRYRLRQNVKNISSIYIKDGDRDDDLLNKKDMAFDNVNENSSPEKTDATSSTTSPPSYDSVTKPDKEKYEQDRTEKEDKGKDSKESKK

| IC50 [µM] | Compound |
| --- | --- |
| 41 | CS(=O)(=O)NC(=O)c1ccc(Oc2cc3ccccc3cn2)c(C#N)c1 [Example L43, 3-cyano-4-(isoquinolin-3-yloxy)-N-(methylsulfonyl)benzamide] |
| > 323 | Cn1cnc2cccc(Oc3cc(F)c(C(=O)NS(C)(=O)=O)cc3Cl)c21 [Example L44, 5-chloro-2-fluoro-4-[(1-methyl-1H-benzimidazol-7-yl)oxy]-N-(methylsulfonyl)benzamide] |
| 121 | COc1c(C(=O)NS(C)(=O)=O)ccc(Oc2ccc(Oc3ccc(F)cc3)nc2)c1F [Example L47, 3-fluoro-4-{[6-(4-fluorophenoxy)pyridin-3-yl]oxy}-2-methoxy-N-(methylsulfonyl)benzamide] |
| 38.5 | CCCc1ccc(Oc2ccc(C(=O)NS(C)(=O)=O)cc2F)cn1 [Example L48, 3-fluoro-N-(methylsulfonyl)-4-[(6-propylpyridin-3-yl)oxy]benzamide] |
| 300 | Cc1ccc(Oc2ccc(C(=O)NS(C)(=O)=O)cc2F)cn1 [Example L51, 3-fluoro-4-[(6-methylpyridin-3-yl)oxy]-N-(methylsulfonyl)benzamide] |
| 300 | CCc1ccc(Oc2ccc(C(=O)NS(C)(=O)=O)c(C)c2)cn1 [Example L55, 4-[(6-ethylpyridin-3-yl)oxy]-2-methyl-N-(methylsulfonyl)benzamide] |
| 216 | Cc1ncc(Oc2ccc(C(=O)NS(C)(=O)=O)cc2Cl)cn1 [Example L58, 3-chloro-4-[(2-methylpyrimidin-5-yl)oxy]-N-(methylsulfonyl)benzamide] |
| 100 | Cc1ncc(Oc2ccc(C(=O)NS(C)(=O)=O)cc2C(F)(F)F)cn1 [Example L61, 4-[(2-methylpyrimidin-5-yl)oxy]-N-(methylsulfonyl)-3-(trifluoromethyl)benzamide] |
| 57.4 | COc1c(C(=O)NS(C)(=O)=O)ccc(Oc2cnc(N3CCCCC3)nc2)c1F [Example L62, 3-fluoro-2-methoxy-N-(methylsulfonyl)-4-[(2-piperidin-1-ylpyrimidin-5-yl)oxy]benzamide] |
| > 323 | CS(=O)(=O)NC(=O)c1ccc(Oc2cncnc2)c(Cl)c1 [Example L64, 3-chloro-N-(methylsulfonyl)-4-(pyrimidin-5-yloxy)benzamide] |
